Patent US4725600A, “Pyrimidine compounds having activity as a cardiotonic anti-hypertensive cerebrovascular vasodilator and anti-platelet aggregation agent” (Fujisawa Pharmaceutical Co., Ltd., priority 1984, dated 1988)
Like-named read-outs stand apart in the source and are kept apart here.

Experiments:
Mongrel dogs = assay: Cardiotonic activity (Test Method A): percentage of dp/dt max change in anesthetized mongrel dogs; type: in vivo; conditions: Canis lupus familiaris, iv, injected into the femoral vein, read-out: dp/dt M.C. (percentage of dp/dt max changes)
Description: Mongrel dogs of either sex were anesthetized with sodium pentobarbital, 35 mg/kg, i.p. The animals were allowed to breathe spontaneously. The left carotid artery was isolated and a catheter (USCI, #8F) filled with heparinized saline was inserted and advanced into the left ventricle. The catheter was connected to a pressure transducer (Nihonkohden, MPU-0.5A) to measure the left ventricular pressure, from which dp/dt max was derived by analog computing. To measure the systemic blood pressure the left femoral artery was cannulated. The blood pressure pulse was used to trigger a heart rate meter. Another catheter was positioned in the vena cave through right femoral vein for injection of drugs. Systemic blood pressure, left ventricular pressure, dp/dt max and heart rate were recorded simultaneously on a polygram (Nihonkohden, RJG-4008).
Test compound was dissolved in distilled water (0.2 ml/kg) or dimethyl sulfoxide (0.04 ml/kg) and injected into the femoral vein. The parameters after dosing were compared with those during the predosing period.
Test results were represented in terms of percentage of dp/dt max changes (dp/dt M.C.) calculated by following formula, and are shown in table 1. [formula]

[1] = system: Platelet rich plasma (PRP); assay: Anti-platelet activity (Test Method B): inhibition of ADP- or collagen-induced aggregation in rabbit platelet rich plasma; type: cell-based; conditions: Oryctolagus cuniculus, 37° C.
Description: Platelet rich plasma (PRP) which contains 6.5-7.5×10^8 platelet/ml was prepared from rabbit blood. To the 200 μl of PRP, 5 μl of calcium chloride (1 mM) and 50 μl of pH 7.4 Tris-acetate solution (5 mM) containing 120 mM NaCl and test compound were added successively, and then stirred for 2 min. at 37° C. To the solution 5 μl of adenosine diphosphate (ADP) (2.5 μM) or collagen (2.5 μg/ml) was added as an agregation inducer. Aggregation was measured by using an aggregometer (NKK HEMA TRACER 1).

male Wistar rats (DOCA) = assay: Antihypertensive activity (Test Method C): maximum decrease of blood pressure in DOCA-treated uninephrectomized rats; type: in vivo; conditions: 1.0 mg/kg, oral; DOCA hypertensive rats, mean arterial pressure
Description: Antihypertensive activity
Five-week old male Wistar rats were uninephrectomized under anesthesia. Deoxycorticosterone acetate (DOCA) (30 mg/kg), suspended in peanut oil, was injected subcutaneously twice a week and 1% saline was substituted for the drinking water. Animals with mean blood pressure 150-200 mmHg were used for experiment between 5 and 7 weeks after surgery.
The test compounds were administered orally. Blood pressure was measured at the femoral artery by means of a pressure transducer and recorded as electrically integrated values of mean arterial pressure.

SMILES | change in vivo at 0.1 mg/kg (Mongrel dogs) [%] | other results
COc1ccc(-c2cc(N(C)c3c(C)cc(C)cc3C)nc(C)n2)cc1OC [Examples (17-6) and 20, 6-(3,4-dimethoxyphenyl)-2-methyl-4-[N-methyl-N-(2,4,6-trimethylphenyl)amino]pyrimidine] | 76 | –
COc1ccc(-c2cc(=Nc3c(C)cc(C)cc3C)n(C)cn2)cc1OC [Example 2, 3,4-dihydro-6-(3,4-dimethoxyphenyl)-3-methyl-4-(2,4,6-trimethylphenylimino)pyrimidine] | 114 | IC50 ([1]; aggregation inducer ADP (2.5 μM), pH 7.4, read-out: ID50, ADP): 260 nM; IC50 ([1]; aggregation inducer collagen (2.5 μg/ml), pH 7.4, read-out: ID50, Collagen): 360 nM; Effect Max (mean ratio of maximum decrease of blood pressure) (male Wistar rats (DOCA)): 39.0%
COc1ccc(-c2cc(=Nc3c(C)cc(C)cc3C)n(C)c3nncn23)cc1OC [Example 11, 7,8-dihydro-5-(3,4-dimethoxyphenyl)-8-methyl-7-(2,4,6-trimethylphenylimino)-1,2,4-triazolo[4,3-a]pyrimidine] | 60 | –
CCn1c(C)nc(-c2ccc(OC)c(OC)c2)cc1=Nc1c(C)cc(C)cc1C [Examples (17-12) and (19-12), 3,4-Dihydro-6-(3,4-dimethoxyphenyl)-3-ethyl-2-methyl-4-(2,4,6-trimethylphenylimino)pyrimidine] | 87 | –
COc1ccc(-c2cc(=Nc3c(C)cc(C)cc3C)n(C)c(N(C)Cc3ccccc3)n2)cc1OC [Example 3, 3,4-dihydro-6-(3,4-dimethoxyphenyl)-3-methyl-2-(N-methyl-N-benzylamino)-4-(2,4,6-trimethylphenylimino)pyrimidine] | 29 | –
COc1ccc(-c2cc(=Nc3c(C)cc(C)cc3C)n(C)c(Cl)n2)cc1OC [Example 1, 2-chloro-3,4-dihydro-6-(3,4-dimethoxyphenyl)-3-methyl-4-(2,4,6-trimethylphenylimino)pyrimidine] | 45 | –
Nc1cc(-c2ccncc2)c[nH]c1=O [Amrinone, 3-Amino-5-(4-pyridyl)-2(1H)-pyridinone, reference compound] | 9 | –
COc1ccc(-c2cc(=Nc3c(C)cc(C)cc3C)n(C)c3nnnn23)cc1OC [Example 12, 4,5-dihydro-7-(3,4-dimethoxyphenyl)-4-methyl-5-(2,4,6-trimethylphenylimino)tetrazolo[1,5-a]pyrimidine] | 152 | –
COc1ccc(-c2cc(=Nc3c(C)cc(C)cc3C)n(C)c(C)n2)cc1OC [Example 18, 3,4-dihydro-6-(3,4-dimethoxyphenyl)-2,3-dimethyl-4-(2,4,6-trimethylphenylimino)pyrimidine] | 72 | –
